Assays:
[1] = test system: NFKBIZ mRNA; experiment: NFKBIZ mRNA expression by RT-qPCR in IL-36-stimulated HaCaT cells; assay type: cell-based, human; settings: IL-36-stimulated (100 ng/ml, 2 h) HaCaT cells, nanomicelles with 10 μM ASONFKBIZ-h, 6 h + 48 h
Method: HaCaT cells from human keratinocyte cell line were inoculated in a 6-well plate at a density of 1×10^5 cells/well and cultured until adherence. The cells were then stimulated with 100 ng/ml interleukin-36 (IL-36) for 2 h. After washing with 1×PBS buffer, 1 mL of Opti-MEM medium containing ASONFKBIZ-h+Lipo2000 complex and CsA3-ASONFKBIZ-h nanomicelles (all containing 10 μM ASONFKBIZ-h) were added, respectively. After incubation with HaCaT cells for 6 h, the cells were transferred into fresh DMEM medium, while cells without any treatment or stimulated with IL-36 alone were used as a control, all cells were incubated at 37° C. for 48 h. The cells were collected and RNA was extracted for RT-qPCR to analyze the expression level of the NFKBIZ mRNA in HaCaT cells, and experimental results were shown in FIG. 51.
HaCaT cells from human keratinocyte cell line were inoculated in a 6-well plate at a density of 1×10^5 cells/well and cultured until adherence. The cells were then stimulated with 100 ng/ml interleukin-36 (IL-36) for 2 h. After washing with 1×PBS buffer, 1 mL of Opti-MEM medium containing ASONFKBIZ-h+Lipo2000 complex and 10TA-ASONFKBIZ-h nanomicelles (all containing 10 μM ASONFKBIZ-h) were added, respectively. […]

[2] = test system: NFKBIZ mRNA; experiment: NFKBIZ mRNA expression by RT-qPCR in LPS-stimulated HCECs; assay type: cell-based, human; settings: LPS-stimulated (100 ng/mL) HCECs, 10 μM ASO or siRNA, without transfection reagent, 6 h + 48 h
Method: HCECs were inoculated in a 6-well plate at a density of 1×10^5 cells/well and cultured until adherence. The cells were then stimulated with 100 ng/mL lipopolysaccharide (LPS) overnight. After removing the supernatant, 1 mL of Opti-MEM medium containing ASONFKBIZ-h, ASONFKBIZ-h+Lipofectamine2000 (Lipo2000), and CsA-ASONFKBIZ-h (all containing 10 µM ASO) were added, respectively. Cells without any treatment were used as a blank reference (Mock). After incubation at 37° C. for 6 h, the cells were transferred into DMEM medium and incubated for another 48 h. The cells were collected and RNA was extracted for RT-qPCR to analyze the expression level of the NFKBIZ mRNA in HCECs, and experimental results were shown in FIG. 9. The expression level of NFKBIZ mRNA in HCECs after LPS stimulation was about 1.3 times that of normal cells. […] After adding CsA-ASONFKBIZ-h for co-incubation, the expression of NFKBIZ mRNA was reduced to about 0.8 times that of normal cells.
(§1) HCECs were inoculated in a 6-well plate at a density of 1×10^5 cells/well and cultured until adherence. The cells were then stimulated with 100 ng/mL LPS overnight. After removing the supernatant, 1 mL of Opti-MEM medium containing ASONFKBIZ-h+Lipo2000 complex and 2CsA-ASONFKBIZ-h nanomicelles (all containing 10 µM ASO) were added, respectively. After incubation at 37° C. for 6 h, the cells were transferred into DMEM medium and incubated for another 48 h. The cells were collected and RNA was extracted for RT-qPCR to analyze the expression level of the NFKBIZ mRNA in HCECs, and experimental results were shown in FIG. 12.
as §1, with “ng/ml” for “ng/mL”, “3CsA-ASONFKBIZ-h” for “2CsA-ASONFKBIZ-h”, “15.” for “12.”
HCECs were inoculated in a 6-well plate at a density of 1×10^5 cells/well and cultured until adherence. The cells were then stimulated with 100 ng/mL LPS overnight. 1 mL of Opti-MEM medium containing ASONFKBIZ-h+Lipo2000 complex and CsA3-ASONFKBIZ-h nanomicelles (all containing 10 µM ASO) were added, respectively. After incubation at […]. 37° C. for 6 h, the cells were transferred into DMEM medium and incubated for another 48 h. After collected and RNA was extracted for RT-qPCR to evaluate the expression level of NFKBIZ mRNA in HCECs, and the experimental results were shown in FIG. 23.
HCECs were inoculated in a 6-well plate at a density of 1×10^5 cells/well and cultured overnight until adherence. The cells were then stimulated with 100 ng/ml LPS for 12 h. After removing the supernatant, 1 mL of Opti-MEM medium containing siRNANFKBIZ-h+Lipo2000 complex and nCsA-siRNANFKBIZ-h (n=1, 2, 3) conjugates and nanomicelles (all containing 10 μM siRNA) were added, respectively. After incubation at 37° C. for 6 h, the cells were transferred into DMEM medium and incubated for another 48 h. The cells were collected and RNA was extracted for RT-qPCR to evaluate the expression of NFKBIZ mRNA in HCECs, and experimental results were shown in FIG. 27. […]

Substance: CsA3-ASONFKBIZ-h: CsA trimer on tripropargyl linker at 3′ end of ASO targeting human NFKBIZ (SEQ ID NO: 7) (ATCAGACAACGAATCGGGC; 3'-NHS ASO with tripropargyl linker carrying three cyclosporin A, chemistry not given here, further chemistry not given here)
- NFKBIZ mRNA expression relative to normal cells [1]: about 0.8 times
- expression of NFKBIZ mRNA relative to normal cells [2]: about 0.5 times that of normal cells

— patent US20250367302A1, “SMALL MOLECULE DRUG-OLIGONUCLEOTIDE CONJUGATE AND USE THEREOF” (SHANGHAI JIAO TONG UNIVERSITY, priority 2022, published 2025)
